Data on 1 molecule can be found in PubChem BioAssay AID504625 (Southern Research Specialized Biocontainment Screening …, 2011).

What is called IC50 is the concentration that gives 50% inhibition.

This assay concerns human PBMC, HIV-1 X4 replication, supernatant RT activity. Put plainly: anti-HIV-1 activity in primary human blood cells – cell-based, human PBMC, set 3, dose response (AID 504625).

Molecules are shown by their SMILES.

`Cc1c2c(=O)n(-c3nc4ccccc4s3)nc-2cc(O)n1Cc1ccccc1`: the IC50 was 1510 nM.
